# Source: patent US10849935B2, “Method to suppress the systemic toxicity of chemotherapeutic drugs” (United Arab Emirates University, priority 2013, dated 2020)
# Several values for one entry are separate records, joined by “and”; a condition that tells them apart may be missing. Identical values can stand only once. Like-named read-outs stand apart in the source and are kept apart here.
# Experiments:
# [1] = tested on: caspase 3-positive (apoptotic) tumor cells; assay: Caspase 3 immunohistochemistry of tumor sections; type: in vivo; details: tumors of treated melanoma-bearing mice, mean±SEM
# Description: Tumor tissue sections were prepared after treatment with saline (FIG. 11A), manuka honey (FIG. 11B), paclitaxel (FIG. 11C) or manuka honey+paclitaxel (FIG. 11D) and stained using caspase 3-specific antibody. Representative images at high magnification (bar=50 μm) are shown. Arrows indicate representative, brown-staining, apoptotic cells. Necrotic regions are also indicated (n). The results are representative of two independent experiments. (FIG. 11E) Quantitative estimation of the number of caspase-3 positive cells in tumor sections of different treatment groups. The data is shown as the mean±SEM of the number of positive cells per high power field. Tumors were obtained from 2-3 mice per treatment group and multiple sections were made from each tumor tissue. The number of positive cells was determined by counting the number of cells in 20 high power fields per section.
# Tumor tissue sections were prepared from tumors obtained from animals treated with manuka honey, paclitaxel, manuka honey plus paclitaxel or saline as control. […] By counting the number of caspase 3-positive cells in a random selection of 10-20 high power fields (hpf), a quantitative estimate of apoptotic cell number could be achieved.
# [2] = tested on: glutathione (GSH) in liver, spleen and kidney; details: 2 injections per week for 3 weeks
# Description: Animals were treated with saline, paclitaxel, manuka honey or manuka honey plus paclitaxel. At the end of a 3-week treatment, animals were sacrificed and organs removed for toxicity determination. The levels of glutathione (GSH) in the liver (FIG. 12A) spleen (FIG. 12B) and kidney (FIG. 12C) were determined. The data represent the mean±SEM of a minimum of 3 determinations per experimental group. For all panels, asterisks denote significant differences between the indicated groups (*, p<0.05; **, p<0.01; ***, p<0.001).
# Groups of mice were injected with manuka honey, paclitaxel, manuka honey plus paclitaxel or saline for a total period of 3 weeks (2 injections per week). The animals were then sacrificed and their organs (liver, spleen, and kidney) obtained and analyzed for the levels of glutathione (GSH), a major antioxidant effector.
# B16.F1 melanoma tumor = details: for inhibition of tumor growth vs saline control: day 18 post treatment
# Description: The activity of manuka honey was evaluated in B16.F1 melanoma tumor model. Mice were divided in four groups and treated by intravenous administration (100-200 μl 2 times per week for up to 3 weeks) of manuka honey alone, at either 5%, 10% or 20% w/v, or saline as a control. Tumor volume and animal survival were followed for up to 3 weeks post treatment initiation.
# The antitumor activity of manuka honey was evaluated in the syngeneic B16.F1 melanoma tumor model. C57BL/6 mice with established tumors (mean>50 mm3) were divided into four groups and treated by intravenous administration (2 times per week for up to 3 weeks) of manuka honey alone (50% w/v), taxol alone (10 mg/kg), manuka honey (50% w/v) plus taxol (10 mg/kg) or saline as a control. Tumor volume and animal survival were followed for up to 3 weeks post treatment initiation. […] The effect of the various treatments on animal survival was also followed (FIG. 8B).
# C57BL/6 mice with established tumors (mean>50 mm^3) were divided into four groups and treated by intravenous administration (2 times per week for up to 3 weeks) of manuka honey alone (50% w/v), taxol alone (5 mg/kg), manuka honey (50% w/v) plus taxol (5 mg/kg) or saline as a control. Tumor volume and animal survival were followed for up to 3 weeks post treatment initiation.
# In a further experiment the mice were divided into four groups and treated by intravenous administration (2 times per week for up to 3 weeks) of manuka honey alone (50% w/v), taxol alone (8 mg/kg), manuka honey (50% w/v) plus taxol (8 mg/kg) or saline as a control. Tumor volume and animal survival were followed for up to 3 weeks post treatment initiation.
# One syngeneic tumor model was used in this study, namely the B16.F1 melanoma (skin cancer) model. […] The procedure for tumor implantation is briefly as follows, C57BL/6 (8-10 mice per group) were inoculated subcutaneously in the right flank with 2×10^5 B16.F1 melanoma cells and staged to day 12-14.
# Tumor growth was followed by quantitative determination of tumor volume, measured as the product of the perpendicular diameters using digital calipers, according to the formula: volume=L×W^2/2. For the B16.F1 model, once tumors were established, mice were given intravenous (i.v.) doses (100 μl per injection) of (1) saline (control), (2) 50% (w/v) manuka honey (MH) suspension in sterile saline, (3) paclitaxel (at doses of 5 or 8 mg/kg body weight) or (4) MH (50% w/v)+paclitaxel. All treatments were routinely administered twice per week, using freshly prepared reagents. Tumor growth and animal survival were followed for the subsequent 50 days.
# PARP in B16.F1 cells = assay: Western blot of PARP cleavage; type: cell-based, mouse; details: taxol 50 ng/ml, 24 hr
# Description: (§1) FIGS. 4A-4C. Manuka honey induces late apoptotic events in cancer cells. FIG. 4A. B16.F1 cells were incubated for 24 hr or 72 hr in the absence or presence of Manuka honey (M; 5%) or taxol (T; 50 ng/ml). Whole cell extracts (100 μg/lane) were resolved on 10% SDS-PAGE followed by Western blotting with an antibody specific to Bcl-2. FIG. 4 B. Cells were treated for 24 hr or 72 hr with the indicated concentrations of manuka honey (0.6%-5.0%) or taxol (50 ng/ml). Whole cell extracts (100 μg/lane) were resolved on 10% SDS-PAGE followed by Western blotting with a PARP-specific antibody. The full-length (116 kD) and cleaved (89 kD) forms of PARP are indicated. The cell extracts were also probed with an antibody against β-actin as a control for loading. FIG. 4C. Following treatment for 72 hr, cells were lysed and DNA extracted by centrifugation and phenol-chloroform extraction. Extracted DNA was resolved on 1.5% agarose gel and stained with ethidium bromide to visualize the oligonucleosomal fragments. The results are representative of two independent experiments.
# One of the target proteins for active caspase-3 is the DNA repair enzyme poly(ADP-ribose) polymerase (or PARP). […]
# B16.F1 melanoma cells = assay: Cell viability, CellTiter-Glo luminescent assay, B16.F1
# Description: Skin cancer cells (B16.F1 cell line) (FIGS. 1A-1C), colon cancer cells (CT26 cell line) (FIGS. 1D, 1E) and breast cancer cells (MCF-7 cell line) (FIGS. 1F, 1G) were plated at 5×10^3 cells per well and incubated for 24 hr (FIGS. 1A, 1D, 1F), 48 hr (FIG. 1B) or 72 hr (FIGS. 1C, 1E, 1G) in the absence or presence of the indicated concentrations of manuka honey (range 0.3% to 5.0% w/v), or taxol (10 ng/ml or 50 ng/ml final concentration). At the end of the incubation period, cell viability was determined using CellTiter-Glo luminescent assay. Results are expressed as percentage viability in treated cell cultures compared to control, untreated, cells and are representative of 3 (for B16.F1 cells) or 2 (for CT26 and MCF-7 cells) independent experiments. Asterisks denote statistically significant differences in viability of experimental groups compared to control (*, p<0.05; **, p<0.01; ***, p<0.001).
# The potential effect of manuka honey on cancer cell proliferation was investigated using three tumor cell lines differing in type and origin, the murine melanoma (B16.F1) and colon carcinoma (CT26) cells and the human breast cancer (MCF-7) cell line. Cells were incubated with different concentrations of manuka honey (range 0.3 to 2.5% w/v) for 24-72 hrs. As a positive control, cells were cultured with taxol at a final concentration of 10 or 50 ng/ml.
# [3] = tested on: caspase 8 in B16.F1 melanoma cells; assay: Caspase 8 enzymatic activity in treated cells; type: cell-based, mouse; details: paclitaxel 10 ng/ml, 24 hr
# Description: (§2) B16.F1 melanoma cells were treated with manuka honey (5% w/v), taxol (10 or 50 ng/ml) or medium as control. After 24 hr of culture, enzymatic activity of caspase 3/7 (FIG. 3A) and caspase 8 (FIG. 3B) were determined using specific kits and following manufacturer's recommendation. The data is presented as fold increase in caspase activity after normalization to the number of viable cells per culture. FIG. 3C. Western blot analysis of caspase-9 activation B16.F1 cells treated with manuka honey or taxol. […] Protein extracts were resolved on 10% SDS-PAGE and immunoblotted with caspase-9-specific ployclonal antibody capable of detecting both full length and cleaved forms of caspase-9. The cell extracts were also probed with an antibody against β-actin as a control for protein loading.
# (§3) A critical component for the initiation of the apoptosis pathway is the sequential recruitment of a number of caspases leading to the activation of the effector caspase-3. This, in turn, leads to the cleavage of a number of vital cellular substrates required for cell viability. Next explored was the mechanism of apoptosis induction in manuka honey-treated cancer cells.
# [4] = tested on: caspase-9 in B16.F1 cells; assay: Western blot of caspase-9 activation; type: cell-based, mouse; details: paclitaxel 10 ng/ml, 24 hr
# Description: as §2
# B16.F1 cells = assay: Annexin V-FITC / PI flow cytometry (apoptosis); type: cell-based, mouse; details: taxol 10 ng/ml, 24 hr
# Excerpt: The results are representative of three independent experiments.
# Bcl-2 in B16.F1 cells = assay: Western blot of Bcl-2 expression; type: cell-based, mouse; details: taxol 50 ng/ml
# Description: as §1
# Bcl-2 is a member of a large family of cell survival-regulating proteins consisting of both proand anti-apoptotic regulators. […] Therefore the level of Bcl-2 expression in B16.F1 cells following treatment with manuka honey or taxol was determined.
# [5] = tested on: caspase 3/7 in B16.F1 melanoma cells; assay: Caspase 3/7 enzymatic activity in treated cells; type: cell-based, mouse; details: paclitaxel 10 ng/ml, 24 hr
# Description: as §2, §3
# [6] = tested on: 4T1 metastatic breast cancer; assay: 4T1 metastatic breast adenocarcinoma model: growth and survival; type: in vivo, BALB/c mice
# Description: Two different syngeneic tumor models were used in this study, namely, MC38 colorectal cancer and 4T1 metastatic breast adenocarcinoma.
# For the 4T1 breast cancer cells, BALB/c mice were implanted orthotopically in the mammary fat pad with 1×10^6 cancer cells/mouse.
# For the colon and breast cancer models, mice bearing tumors were treated with (1) saline (control), (2) manuka honey (50% w/v), (3) Oxaliplatin at 6 mg/kg or (4) manuka honey (50% w/v)+Oxaliplatin (6 mg/kg). The manuka honey (50% w/v) was given intravenously (i.v.) twice per week. Oxaliplatin 6 mg/kg was administered intraperitoneally (i.p.) once per week. The total treatment period was 3 weeks.
# [7] = manuka honey 50% w/v, taxol 10 mg/kg, i.v. 2 times per week
smiles,measurement,setting,value
"CC(=O)O[C@H]1C(=O)[C@@]2(C)[C@H]([C@H](OC(=O)c3ccccc3)[C@]3(O)C[C@H](OC(=O)[C@H](O)[C@@H](NC(=O)c4ccccc4)c4ccccc4)C(C)=C1C3(C)C)[C@]1(OC(C)=O)CO[C@@H]1C[C@@H]2O [taxol, paclitaxel]",number of caspase 3-positive cells per high power field in tumor sections,[1],11.7±1.8 per hpf
same,"organ GSH levels (liver, spleen, kidney)",[2],marked decrease in organ GSH levels
same,inhibition of tumor growth vs saline control,B16.F1 melanoma tumor; [7],~61%
same,inhibition of tumor growth vs saline control,"B16.F1 melanoma tumor; manuka honey 50% w/v, taxol 10 mg/kg, i.v. 2 times per week, listed as paclitaxel",60% and 61%
same,survival of tumor-bearing mice,"B16.F1 melanoma tumor; day 25, paclitaxel 5 mg/kg, MH 50% w/v",no significant difference in animal survival
same,percentage survival,"B16.F1 melanoma tumor; day 25, paclitaxel 8 mg/kg, manuka honey 50% w/v",36% and 36.4%
same,overall survival at end of observation period,"B16.F1 melanoma tumor; day 25 post treatment, manuka honey 50% w/v, taxol 10 mg/kg",20%
same,day after initiation of treatment at which inhibition/delay of tumor growth was first observed,B16.F1 melanoma tumor; [7],7 days
same,effect on tumor growth (FIG. 13),"B16.F1 melanoma tumor; paclitaxel 5 mg/kg, MH 50% w/v, i.v. twice per week",no effect of tumor growth
same,"effect on tumor growth (FIGS. 17, 18)","B16.F1 melanoma tumor; paclitaxel 8 mg/kg, MH 50% w/v, i.v. twice per week",intermediate effect on reducing tumor growth
same,median survival,"B16.F1 melanoma tumor; post treatment, manuka honey 50% w/v, taxol 10 mg/kg, i.v. 2 times per week",20 days
same,tumor volume and survival vs saline (FIG. 9),"B16.F1 melanoma tumor; taxol 5 mg/kg, manuka honey 50% w/v, i.v. 2 times per week, 14 days post-treatment",ineffective at reducing tumor volume
same,cleavage of PARP into the 89 kD fragment,PARP in B16.F1 cells,cleavage of PARP into the 89 kD fragment was evident
same,"viability of B16.F1 cells, % of control","B16.F1 melanoma cells; taxol 10 ng/ml, 24 hrs",90%
same,"viability of B16.F1 cells, % of control","B16.F1 melanoma cells; taxol 10 ng/ml, 72 hrs",64%
same,"viability of B16.F1 cells, % of control","B16.F1 melanoma cells; taxol 50 ng/ml, 24 hrs",83%
same,"viability of B16.F1 cells, % of control","B16.F1 melanoma cells; taxol 50 ng/ml, 72 hrs",34%
same,increase in caspase-8 activity,[3],2 fold
same,induction of caspase-9,[4],No evidence for induction of caspase-9
same,Annexin V-positive (apoptotic) cells,B16.F1 cells,32.8%
same,"late apoptotic cells (positive for both Annexin V-FITC and PI), % of total",B16.F1 cells,3.9%
same,Bcl-2 expression,Bcl-2 in B16.F1 cells; 24 hr,substantially decreased
same,Bcl-2 expression,Bcl-2 in B16.F1 cells; 72 hr,undetectable
same,increase in caspase 3/7 activity,[5],2 fold
O=C1[O][Pt]2([NH][C@@H]3CCCC[C@H]3[NH]2)[O]C1=O [Oxaliplatin],effect on cancer growth and animal survival,"[6]; Oxaliplatin 6 mg/kg, MH 50% w/v",only a marginal effect on cancer growth and animal survival
same,percentage survival,"[6]; day 50, Oxaliplatin 6 mg/kg i.p. once per week, manuka honey 50% w/v i.v. twice per week, 3 weeks",22%
